One series in a line: In vitro clearance, rat. In kind it is in vitro ADME. The settings on record: for CLHEP, rat: in vitro predicted, well-stirred equation without fuplasma/fumic terms; for CLHEP, rat / CLint scaled: rat; for CLint scaled: liver microsomes.
Series [1] can be described thus: IV pharmacokinetics in SD rat. In kind it is in vivo. The settings on record: Sprague-Dawley, plasma.
A short description of series [2]: In vitro clearance, human. In kind it is in vitro ADME. Particulars: for CLHEP, human: in vitro predicted; for CLint scaled: liver microsomes.
A further series has as its system CYP450s (panel). The series is described as follows: CYP450 inhibition profile. In kind it is in vitro ADME.
A short description of series [3]: Reactive metabolism/bioactivation. In kind it is in vitro ADME. The settings on record: human hepatic microsomes.
A short description of series [4]: Oral pharmacokinetics in rat. In kind it is in vivo.
The subject of the next series is human M1-3,5. Nature of the series: Muscarinic subtype selectivity, human M1-3,5. In kind it is cell-based. Particulars: read-out: EC50 at human M1-3,5.
For the next series, the system named is GABAA receptor. Nature of the series: GABAA functional assay. The settings on record: at 10 μM. In kind it is biochemical.
A further series concerns rat M1-3,5. Nature of the series: Muscarinic subtype selectivity, rat M1-3,5. Particulars: read-out: EC50 at rat M1-3,5. In kind it is cell-based.
The subject of a further series is CYP450. Nature of the series: Human CYP450 phenotyping. In kind it is in vitro ADME.
Series [5] can be described thus: In vitro metabolite identification in cryopreserved hepatocytes. In kind it is in vitro ADME, rat, dog, cynomolgus monkey, human.
The target of another series is cyno M4 (Macaca fascicularis, UniProt G7PQB4). Nature of the series: ACh CRC fold-shift Ca2+ mobilization and ACh competition binding. Particulars: operational model cooperativity; n=3–4. In kind it is cell-based, cynomolgus monkey. In general terms: Calcium flux is commonly read through the fluorescence of an indicator in the cells.
Series [6] deals with L-DOPA-induced dyskinesia. The settings on record: NHPs, 10 mg/kg IV; cited from earlier work.
The test system of a further series is cyno M2. The series is described as follows: Muscarinic subtype selectivity, cyno M2. In kind it is cell-based, cynomolgus monkey. The settings on record: data not shown.
The subject of series [7] is L-DOPA-induced dyskinesia. Particulars: PD-LID mice and NHPs; cited from earlier work.
Another series has as its system CYP 1A2/2B6/3A4. The series is described as follows: CYP induction in cryopreserved human hepatocytes. In kind it is in vitro ADME. The settings on record: 48 hr incubation, enzyme activity readout.
The next series deals with CYP1A2, CYP2B6, CYP3A4. Nature of the series: CYP induction in cryopreserved human hepatocytes. In kind it is in vitro ADME. Particulars: human.
The next series deals with TA98 and TA100 strains. The series is described as follows: Mini-Ames assay. The settings on record: TA98 and TA100 strains ± S9.
Series [8] in a line: IV and PO pharmacokinetics in cynomolgus monkey. In kind it is in vivo.
Series [9] is described as follows: IV and PO pharmacokinetics in dog. In kind it is in vivo.
The next series has as its system dog M2. The series is described as follows: Muscarinic subtype selectivity, dog M2. In kind it is cell-based. The settings on record: data not shown.

A value given as a limit tells only on which side of the number the result lay.

Turning to `Cc1nnc2sc(C(=O)NCc3ccc(-c4ccncc4)cc3)c(N)c2c1C` [8f], in “In vitro clearance, rat”, the “CLHEP, rat” value is 59.9 mL/min/kg and the CLint scaled was found to be 415 mL/min/kg. In [1], this compound registered a clearance of 9 mL/min/kg. For the same compound, in [2], the “CLHEP, human” value is 15.2 mL/min/kg and the CLint scaled came out at 20.1 mL/min/kg. In the series with CYP450s (panel), the IC50 is less than 10 µM.
With `Cc1nnc2sc(C(=O)NCc3ccc(-c4ccnc(F)c4)cc3)c(N)c2c1C` [8k], in the series “In vitro clearance, rat”, the “CLHEP, rat” value was 31.5 mL/min/kg and the CLint scaled stood at 57.1 mL/min/kg. The compound further had a clearance in series [1] of 3.6 mL/min/kg. Further, in series [2], the “CLHEP, human” value is 17.8 mL/min/kg and the intrinsic clearance (CLint scaled) came out at 19.6 mL/min/kg.
For `Cc1nnc2sc(C(=O)NCc3ccc(-c4ccc(F)nc4)cc3)c(N)c2c1C` [8m], in “In vitro clearance, rat”, the “CLHEP, rat” value is recorded as 37.7 mL/min/kg and the CLint scaled came out at 81.6 mL/min/kg. For the same compound, the clearance in series [1] is 1.7 mL/min/kg. In series [2], the “CLHEP, human” value is given as 17.1 mL/min/kg and the CLint scaled is 20.2 mL/min/kg.
`Cc1nnc2sc(C(=O)NCc3ccc(-c4cccnc4F)cc3)c(N)c2c1C` [8p, 5-amino-N-(4-(2-fluoropyridine-3-yl)benzyl)-3,4-dimethylthieno[2,3-c] pyridazine-6-carboxamide]: in the series “In vitro clearance, rat”, the “CLHEP, rat” value is reported as 46.0 mL/min/kg. Moreover, the “predicted rat CLhep, revised prediction method” value in the series “In vitro clearance, rat” (inclusion of binding terms in the well-stirred model) was 0.49 mL/min/kg. Also, the CLint scaled in “In vitro clearance, rat” came out at 134 mL/min/kg; in series [2], 19.2 mL/min/kg. Also, the clearance stood at 1.6 mL/min/kg in series [1]; 9.3 mL/min/kg in series [8] (plasma, iv); 5.5 mL/min/kg in [9] (plasma, iv). Besides, the GSH conjugates entry in series [3] is reported as “no significant levels of GSH conjugates”. Besides, the oral bioavailability was found to be 61 % F in series [4] (10 mg/kg solution dose), 54 %F in [4] (HCl salt of 8p dosed as a suspension), 4.7 %F in [8] (10 mg/kg solution dose of HCl salt) and 47 %F in series [9] (3 mg/kg suspension dose of the HCl salt). Moreover, the EC50 with human M1-3,5 and with rat M1-3,5 was more than 30 µM each time. Besides, the “GABAA functional assay activity” value in the series on GABAA receptor is reported as “no activity”. In addition, the “CYPs contributing to metabolism” value in the series on CYP450 is 3A4 (predominant), 2D6, 2C19, 2C9 and 1A2. The human unique metabolites result in series [5] (cryopreserved hepatocytes, multiple species) is given as “no evidence for human unique metabolites”. For the same compound, in series [5] (rat, dog, cynomolgus monkey, human hepatocytes), the “turnover in cryopreserved hepatocytes” value is “low turnover”. Besides, at cyno M4, the “α at cyno M4” value came to 28.2. At cyno M4, the “β at cyno M4” value was found to be 2.5. For the same compound, the “CLHEP, human” value in [2] is listed as 14.8 mL/min/kg. Also, the “dyskinesia scores and involuntary movements” value in [6] is “significantly reduces dyskinesia scores and involuntary movements”. The “activity at cyno M2” value in the series on cyno M2 was “inactive”. Moreover, the “deficits in synaptic plasticity and behavior” value in series [7] was “ameliorates deficits in synaptic plasticity and behavior”. Moreover, the “CYP 1A2/2B6/3A4 induction Emaxs” value in the series on CYP 1A2/2B6/3A4 is less than 2. Besides, in the series with CYP1A2, CYP2B6, CYP3A4, the EC50 at 48 h was more than 50 µM. Besides, in the series on TA98 and TA100 strains, the mini-Ames mutagenicity entry was “negative”. In addition, in the series on CYP450s (panel), the IC50 is not below 11 µM. In addition, in the series with dog M2, the “activity at dog M2” value was “inactive”.

The term CLint scaled denotes the rate of metabolic loss divided by the concentration. For orientation: IC50 means the midpoint of a concentration-inhibition curve. In general, EC50 refers to the concentration that produces a half-maximal response.
